Where “and” joins values, the source holds several entries; their conditions need not be identical. Equal values may be shown once. Read-outs that look alike come from different tables or passages of the source.
Legend:
Type in all cases: binding
[1] = biological target: T1, FABP3 (Homo sapiens, UniProt P05413); assay: CW EPR spectra and spectral simulations of spin-probed fatty acids with FABP3; conditions: for increase of intermediately bound component: FABPx/16-DSA 20/20 μM
T1 construct: purchased Sigma Aldrich
T1 sequence (P05413 whole entry): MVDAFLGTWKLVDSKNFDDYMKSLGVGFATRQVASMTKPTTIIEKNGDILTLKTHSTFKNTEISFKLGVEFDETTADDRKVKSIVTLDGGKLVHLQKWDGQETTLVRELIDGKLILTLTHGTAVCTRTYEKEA
Method: (§1) For a more in-depth view of the binding mechanism, CW EPR spectra of 5/16-DSA with concentration series of the FABPs were measured and simulated. […] Equal concentrations of 20 μM of each spin probe (5- and 16-DSA) were mixed with FABP concentrations of 0 to 200 μM, increasing the resulting ligand/protein ratio in the samples stepwise from 1/0 to 1/10.
(§2) To analyze the spectra quantitatively, subsequent EPR spectral simulations were performed (Fig. 2, B and C). […] For a better understanding, a first interpretation of these components is given at this point. The rotational dynamics are thought to be indirectly proportional to the strength of intermolecular interactions between fatty acid and FABP. Therefore, they are indicative of the binding state of the fatty acids. Higher rotational correlation times signalize lower ligand dynamics and stronger interactions with the protein. […] This exchange broadening can only occur if radicals are located very close distance each other, colliding with each other, leading to partial overlap of spin-bearing orbitals.
(§3) The fractions (weights) Φx of the spectral components were extracted from the EPR simulations of the concentration series and were used to calculate the concentrations of all components with Eq (1). in Figure 3. This was performed for the intermediately and strongly bound components, as well as for their sum, called totally bound 5/16-DSA, to construct binding curves for all FABPs and spin probes. […] Different fit functions were applied to the curves for a better qualitative and quantitative analysis.

[2] = biological target: T2, FABP4 (Homo sapiens, UniProt P15090); assay: CW EPR spectra and spectral simulations of spin-probed fatty acids with FABP4
T2 construct: purchased Sigma Aldrich
T2 sequence (P15090 whole entry): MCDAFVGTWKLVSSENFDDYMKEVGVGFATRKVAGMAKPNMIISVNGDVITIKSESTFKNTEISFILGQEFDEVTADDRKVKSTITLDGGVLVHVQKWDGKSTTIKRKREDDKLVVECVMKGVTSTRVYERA
Method: as §1, §2, §3

[3] = biological target: T3, FABP5 (Homo sapiens, UniProt Q01469); assay: CW EPR spectra and spectral simulations of spin-probed fatty acids with FABP5; conditions: for increase of intermediately bound component: FABPx/16-DSA 20/20 μM
T3 construct: purchased Sigma Aldrich
T3 sequence (Q01469 whole entry): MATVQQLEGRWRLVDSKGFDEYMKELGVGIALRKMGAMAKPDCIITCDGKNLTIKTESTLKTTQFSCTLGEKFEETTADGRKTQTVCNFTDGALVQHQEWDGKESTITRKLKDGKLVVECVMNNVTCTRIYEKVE
Method: as §1, §2, §3

[4] = biological target: T3, FABP5; assay: DHA displacement of 16-DSA from FABP5 by CW EPR; conditions: FABP5/16-DSA/DHA 20/20/0, before DHA addition
Excerpt: In a second addition during revision, we were curious about the question of whether our model ligands that bind with medium affinity to the FABP binding pocket will be displaced when we add a native ligand with higher affinity and whether we could detect this displacement with our CW EPR setup. The native ligand DHA was chosen for this displacement analysis since it is well-known to bind with high affinity to FABP5 ([26]). DHA was pre-dissolved in ethanol, diluted into buffer, and mixed with FABP5 and 16-DSA. […] Samples with FABP5/16-DSA/DHA ratios 20/20/0, 20/20/5, 20/20/10, 20/20/20, 20/20/50, and 20/20/100 were prepared with 5 min incubation time in between 16-DSA and DHA addition. […] We assume that the well-known high binding affinity of DHA refers to the state of strong binding within the pocket. […] Instead, a dynamic exchange of ligands seems to occur, as we consistently observe it with albumins from different species. However, this part opens the way to other future competitive binding assays via CW EPR spectroscopy, e.g., with pharmaceuticals that bind to FABPs.
CW EPR spectroscopic measurements were performed at X-band frequencies (∼9.4 GHz) with a benchtop spectrometer Magnettech MS-5000 (Freiberg Instruments GmbH, now Bruker Biospin). The samples were prepared in low-binding PCR tubes (250 μl). Protein and 5/16-DSA solutions were mixed with HEPES/NaCl buffer at pH 7.5, to obtain samples with a constant 5/16-DSA concentration of 20 μM and varying FABP concentrations of 200, 100, 50, 35, 25, 20, 15, 10 and 5 μM. After an incubation time of 20 min, the samples were transferred into glass capillaries, which were sealed with ‘Critoseal’. At first, solutions with 20 μM of 5/16-DSA were measured as references at 37 °C. The concentration series of FABP with 20 μM 5/16-DSA were measured at 37 °C, directly after preparation. Afterward, the sample capillaries were stored at 4 °C, and subsequent temperature-dependent measurements were performed. […]

[5] = 37 °C, 20 μM spin probe, EPR binding curve, read-out: KD,T,75′ (fit), apparent KD read at 75% totally bound
[6] = FABP3/16-DSA 100/100 μM/μM, 37 °C
[7] = changing the buffer from HEPES to TRIS, pH 7.5
[8] = lowering the pH from 7.5 to 6 in HEPES/NaCl
[9] = Hill fit, totally bound (T), y = bound 5/16-DSA
[10] = read-out: KD,T,50′ (fit), apparent KD read at 50% totally bound, 37 °C, 20 μM spin probe, EPR binding curve
[11] = Hill fit of EPR binding curve, totally bound, 37 °C
[12] = FABP5/16-DSA 100/100 μM/μM, 37 °C

`CCC1(CCCCCCCCCCCCCCC(=O)O)OCC(C)(C)N1[O]` (stereo not drawn) [16-DSA, 16-DOXYL stearic acid] was tested, and the Kd ([1]; 37 °C, 20 μM FABP3, 20 μM spin probe, read-out: KD,T,20μM (calculated, totally bound)) was 1080 ± 550 nM, the Kd [1, 5] was 18000 ± 200 nM and the Kd ([1]; 37 °C, 50 μM FABP3, 20 μM spin probe, read-out: KD,T,50μM (calculated, totally bound)) was 810 nM. The “ΔGF−I,100μM (free to intermediately bound)” value ([1]; 37 °C, 100 μM FABP3) was -33.7 ± 2.5 kJ/mol, the “ΔGF−S,100μM (free to strongly bound)” value ([1]; 37 °C, 100 μM FABP3) was -13.1 ± 0.1 kJ/mol and the “ΔGF−T,100μM (free to totally bound)” value ([1]; 37 °C, 100 μM FABP3) was -37.5 ± 5.4 kJ/mol. For the same compound, the “ΔGI−S,100μM (intermediately to strongly bound)” value ([1]; 37 °C, 100 μM FABP3) was 10.6 ± 0.2 kJ/mol, the Kd ([1]; 37 °C, 100 μM FABP3, 20 μM spin probe, read-out: KD,T,100μM (calculated, totally bound)) was 480 nM and the “aiso, component (1) free” value ([1]; 37 °C, EPR simulation) was 44.1 MHz. For the same compound, the “aiso, component (2) intermediately bound” value ([1]; 37 °C, EPR simulation) was 41.6–42.6 MHz, the “aiso, component (3) strongly bound” value ([1]; 37 °C, EPR simulation) was 38.7 MHz and the “τc,iso, component (1) free” value ([1]; 37 °C, EPR simulation) was 0.04–0.1 ns. For the same compound, the “τc,iso, component (2) intermediately bound” value ([1]; 37 °C, EPR simulation) was 5.2–8.4 ns, the “τc,iso, component (3) strongly bound” value ([1]; 37 °C, EPR simulation) was 19.1–22.2 ns and the intermediately bound proportion ([1]; FABP3/16-DSA 10/10 μM/μM, 37 °C) was 67.1%. The intermediately bound proportion ([1]; FABP3/16-DSA 20/20 μM/μM, 37 °C) was 72.6%, the intermediately bound proportion ([1]; FABP3/16-DSA 50/50 μM/μM, 37 °C) was 85.9% and the intermediately bound proportion [1, 6] was 90.3%. For the same compound, the strongly bound component [1, 6] was 2.8%, the “increase of intermediately bound component” value [1, 7] was 6 to 8% and the “increase of intermediately bound component” value [1, 8] was 16 to 18%. For the same compound, the Hill fit k ([1]; Hill fit, totally bound (T), x = c(FABP3)/c(5/16-DSA)) was 0.535 ± 0.005, the “Hill fit Vmax” value [1, 9] was 100.399 ± 0.459 and the Kd [1, 10] was 10600 ± 100 nM. It also gave a Kd ([2]; 37 °C, 20 μM FABP4, 20 μM spin probe, read-out: KD,T,20μM (calculated, totally bound)) of 10 ± 0.75 µM, a Kd [2, 5] of 43.6 ± 0.4 µM and a Kd ([2]; 37 °C, 50 μM FABP4, 20 μM spin probe, read-out: KD,T,50μM (calculated, totally bound)) of 8.5 ± 4.1 µM. For the same compound, the “ΔGF−I,100μM (free to intermediately bound)” value ([2]; 37 °C, 100 μM FABP4) was -28.4 ± 0.9 kJ/mol, the “ΔGF−T,100μM (free to totally bound)” value ([2]; 37 °C, 100 μM FABP4) was -28.4 ± 0.9 kJ/mol and the Kd ([2]; 37 °C, 100 μM FABP4, 20 μM spin probe, read-out: KD,T,100μM (calculated, totally bound)) was 16.7 ± 0.44 µM. The “aiso, component (1) free” value ([2]; 37 °C, EPR simulation) was 44.1 MHz, the “aiso, component (2) intermediately bound” value ([2]; 37 °C, EPR simulation) was 44.7–48.0 MHz and the “τc,iso, component (1) free” value ([2]; 37 °C, EPR simulation) was 0.05–0.13 ns. The “τc,iso, component (2) intermediately bound” value ([2]; 37 °C, EPR simulation) was 4.0–5.8 ns, the “τc,iso, component (3) strongly bound” value ([2]; 37 °C, EPR simulation) was 22.2 ns and the Hill coefficient n [2, 11] was 1.454 and > 1. The Hill fit k ([2]; Hill fit, totally bound (T), x = c(FABP4)/c(5/16-DSA)) was 0.797 ± 0.047, the “Hill fit Vmax” value [2, 9] was 92.29 ± 2.876 and the Kd [2, 10] was 17.8 ± 0.2 µM. For the same compound, the Kd ([3]; 37 °C, 20 μM FABP5, 20 μM spin probe, read-out: KD,T,20μM (calculated, totally bound)) was 2.14 ± 0.7 µM, the Kd [3, 5] was 22 ± 0.2 µM and the Kd ([3]; 37 °C, 50 μM FABP5, 20 μM spin probe, read-out: KD,T,50μM (calculated, totally bound)) was 5.87 ± 1.21 µM. For the same compound, the “ΔGF−I,100μM (free to intermediately bound)” value ([3]; 37 °C, 100 μM FABP5) was -26.7 ± 0.3 kJ/mol, the “ΔGF−S,100μM (free to strongly bound)” value ([3]; 37 °C, 100 μM FABP5) was -19.4 ± 0.1 kJ/mol and the “ΔGF−T,100μM (free to totally bound)” value ([3]; 37 °C, 100 μM FABP5) was -30.0 ± 0.8 kJ/mol. For the same compound, the “ΔGI−S,100μM (intermediately to strongly bound)” value ([3]; 37 °C, 100 μM FABP5) was 4.0 ± 0.1 kJ/mol, the Kd ([3]; 37 °C, 100 μM FABP5, 20 μM spin probe, read-out: KD,T,100μM (calculated, totally bound)) was 8.9 ± 0.34 µM and the “aiso, component (1) free” value ([3]; 37 °C, EPR simulation) was 44.1 MHz. The “aiso, component (2) intermediately bound” value ([3]; 37 °C, EPR simulation) was 37–42.3 MHz, the “aiso, component (3) strongly bound” value ([3]; 37 °C, EPR simulation) was 37 MHz and the “τc,iso, component (1) free” value ([3]; 37 °C, EPR simulation) was 0.05–0.07 ns. For the same compound, the “τc,iso, component (2) intermediately bound” value ([3]; 37 °C, EPR simulation) was 5.7 ns, the “τc,iso, component (3) strongly bound” value ([3]; 37 °C, EPR simulation) was 22.2 ns and the totally bound fraction ([3]; 37 °C, high FABP5 excess) was 93%. The intermediately bound proportion ([3]; FABP5/16-DSA 10/10 μM/μM, 37 °C) was 61.5%, the intermediately bound proportion ([3]; FABP5/16-DSA 20/20 μM/μM, 37 °C) was 72.2% and the intermediately bound proportion ([3]; FABP5/16-DSA 50/50 μM/μM, 37 °C) was 80.8%. For the same compound, the intermediately bound proportion [3, 12] was 81%, the strongly bound component [3, 12] was 9.5% and the “increase of intermediately bound component” value [3, 7] was 6 to 8%. The “increase of intermediately bound component” value [3, 8] was 16 to 18%, the Hill coefficient n [3, 11] was 0.852 ± 0.04 and < 1 and the Hill fit k ([3]; Hill fit, totally bound (T), x = c(FABP5)/c(5/16-DSA)) was 0.315 ± 0.011. For the same compound, the “Hill fit Vmax” value [3, 9] was 98.288 ± 1.318, the Kd [3, 10] was 7.6 ± 0.1 µM and the “bound 16-DSA” value [4] was 72%.
